Test results as given in patent US20050203191A1, “1-Aminocyclohexane derivatives for the treatment of agitation and other behavioral disorders, especially those associated with alzheimer's disease” (priority 2004, published 2005).

System: patients with moderate-to-severe AD
Test: MD-01: 24-week trial of memantine as monotherapy
Type: in vivo, human
Settings: MD-01, week 24, ITT LOCF
Protocol: MD-01: MD-01 was a trial evaluating memantine as monotherapy for the treatment of patients with moderate-to-severe AD lasting for 24 weeks. About 350 patients were enrolled. Efficacy was evaluated using the Severe Impairment Battery (SIB), the Assessment of Daily Living (ADL) and the CIBIC-plus Scales.
The five memantine trials were evaluated using an analysis of patient for a population having an NPI agitation subscale score of >4 ([…]) and for a population having an NPI score of <4 ([…]). For each NPI population, changes in SIB, ADAS-cog and/or ADL were calculated using the least square (LS) mean difference for memantine and placebo-treated patients. Similarly, for each NPI population, the raw mean difference between memantine and placebo was calculated for the CIBIC-plus results.
For primary efficacy measurements the comparison between memantine and placebo was performed using two-way analysis of covariance (ANCOVA) with treatment group and center as the two factors, and the baseline scores as covariate. Both the LOCF imputation approach and the OC approach are performed at the end of the trials.
For secondary efficacy measurements, the comparison between memantine and placebo was performed using two-way analysis of covariance (ANCOVA) with treatment group and center as the two main effects, and the baseline scores as covariate. Descriptive statistics were calculated by Visit. Again, all analyses were performed using both the LOCF imputation approach and the OC approach.
Results of ANCOVA were summarized using least square (LS) means for each treatment group with corresponding standard error (SE), the between-treatment (2-24 week) difference in the least square means with corresponding 95% confidence interval, and the between-treatment p-value corresponds to the SAS Type III sum of squares.
In data Tables 5-19, the Overall Memantine versus Placebo columns of studies MD-01, MD-02, MD-10 and MD-12 used an ANCOVA model with baseline total score as covariate, treatment and study center as factors for SIB, ADL or ADAS-cog; CMH test controlling for study center for CIBIC-Plus. For MZ-9605, results are based on arithmetic means and the Wilcoxon-Mann-Whitney test. The Agitation score columns/NPI/antipsychotics columns, except CIBIS-Plus, calculated the p-values and LS mean differences within the subgroups from an ANCOVA model with baseline total score as covariate, subgroup (yes/no), treatment, and treatment by subgroup interactions as factors. For CIBIS-Plus, the p-values and raw mean differences within a subgroup were calculated using the CMH test controlling for study center.
Patients in the same five trials described above were stratified into two sub-groups in a second analysis, those with an NPI total score in the top quartile (≧75%), or those more severely impaired at baseline, and those with an NPI total score <75%, or less severe impairment at baseline. Similar to as in Example 1, results were evaluated using the change in SIB (cognitive endpoint), and change in ADCS-ADL (functional endpoint), using the LS mean. The change in the CIBIC-plus (global endpoint) was assessed using the raw mean.
A sub-population of patients from the five trials, MD-01, MD-02, MD-10, MD-12, and MZ-9605, were concurrently taking antipsychotics.

[1] = NPI total score ≧=75% (top quartile)
[2] = antipsychotics usage “YES” (N = n)
[3] = antipsychotics usage “YES” (N = y)
[4] = baseline NPI agitation score <4
[5] = baseline NPI agitation score ≧=4
[6] = baseline NPI agitation score ≧=4, listed as MEM

SMILES: CC12CC3CC(C)(C1)CC(N)(C3)C2 [memantine, 1-amino-3,5-dimethyl adamantane]
- ADCS-ADL (change) LS Mean Diff., MEM v. PLA (NPI total score <75%): 0.87
- ADCS-ADL (change) mean (NPI total score <75%): −1.1
- CIBIC-PLUS Raw Mean Diff., MEM v. PLA (NPI total score <75%): −0.2
- CIBIC-PLUS mean (NPI total score <75%): 4.3
- SIB (change) LS Mean Diff., MEM v. PLA (NPI total score <75%): 0.3
- SIB (change) mean (NPI total score <75%): −1.2
- ADCS-ADL (change) LS Mean Diff., MEM v. PLA [1]: −0.05
- ADCS-ADL (change) mean [1]: −2.3
- CIBIC-PLUS Raw Mean Diff., MEM v. PLA [1]: −0.2
- CIBIC-PLUS mean [1]: 4.5
- SIB (change) LS Mean Diff., MEM v. PLA [1]: 3.5
- SIB (change) mean [1]: −2.8
- ADCS-ADL (change) LS Mean Diff., MEM v. PLA [2]: 0.8
- ADCS-ADL (change) mean [2]: −0.8
- CIBIC-PLUS Raw Mean Diff., MEM v. PLA [2]: −0.26
- CIBIC-PLUS mean [2]: 4.26
- SIB (change) LS Mean Diff., MEM v. PLA [2]: 1.7
- SIB (change) mean [2]: −0.5
- ADCS-ADL (change) LS Mean Diff., MEM v. PLA [3]: −0.15
- ADCS-ADL (change) mean [3]: −3.8
- CIBIC-PLUS Raw Mean Diff., MEM v. PLA [3]: −0.1
- CIBIC-PLUS mean [3]: 4.63
- SIB (change) LS Mean Diff., MEM v. PLA [3]: −1.9
- SIB (change) mean [3]: −6.2
- ADCS-ADL (change) LS Mean Diff., MEM v. PLA [4]: 0.36
- ADCS-ADL (change) mean [4]: −1.3
- CIBIC-PLUS Raw Mean Diff., MEM v. PLA [4]: −0.2
- CIBIC-PLUS mean [4]: 4.3
- SIB (change) LS Mean Diff., MEM v. PLA [4]: −0.15
- SIB (change) mean [4]: −1.9
- ADCS-ADL (change) LS Mean Diff., MEM v. PLA [5]: 1.18
- ADCS-ADL (change) mean [5]: −3.2
- CIBIC-PLUS Raw Mean Diff., MEM v. PLA [5]: 0
- CIBIC-PLUS mean [5]: 4.7
- SIB (change) LS Mean Diff., MEM v. PLA [5]: 4.65
- SIB (change) mean [5]: −1.0
- ADCS-ADL (change) mean [6]: −2.2
- CIBIC-PLUS Raw Mean Diff., MEM v. PLA [6]: 0.0
- ADCS-ADL (change) LS Mean Diff., MEM v. PLA (overall): 0.70
- ADCS-ADL (change) LS mean (overall): −2.00
- CIBIC-PLUS LS mean (overall): 4.30
- CIBIC-PLUS Raw Mean Diff., MEM v. PLA (overall): −0.30
- SIB (change) LS Mean Diff., MEM v. PLA (overall): 0.60
- SIB (change) LS mean (overall): −2.00
